Test results as given in patent US8951508B2, “Compound” (DSM IP Assets B.V., priority 2009, dated 2015).

Columns and labels:
[1] = Comparative solubility of BMDBM in 1:1 C12-15 alkyl benzoate/UV-filter mixtures, HPLC of supernatant after 1 month at RT; details: for effect on solubility of BMDBM in C12-15 alkyl benzoate: conclusion in words
Description: The solubility of BMDBM in a 1:1 (w/w) mixture of C12-15 alkyl benzoate and a polymeric, respectively a solid UV-filter (i.e. Polysilicone-15 (P-15), HY-B1, HY-B2, HY-AB, BEMT or Ethylhexyltriazone (EHT)) was determined by mixing 200 mg of BMDBM with 1000 mg of the 1:1 mixture and measuring the BMDBM concentration of the supernatant by HPLC after a storage period of 1 month at RT. Where necessary the mixture was centrifuged in order to obtain a clear supernatant.

[2] = Reduction of solvent necessary to dissolve solid UV-filter; assay type: physicochemical
[3] = e.g. C12-15 alkyl benzoate or diisopropyl sebaceate; typical value; cited from earlier work

Solubility of BMDBM in C12-15 alkyl benzoate ([1]; reference value without UV-filter, repeated per column) | amount of 1:1 (w/w) mixture of PG-UVB1 and diisopropyl sebacate needed to dissolve 0.5 g BMDBM [2] | amount of 1:1 (w/w) mixture of PG-UVB2 and C12-15 alkyl benzoate necessary to dissolve 0.5 g BMDBM [2] | amount of C12-15 alkyl benzoate necessary to solubilize 0.5 g BMDBM [2] | amount of diisopropyl sebacate necessary to solubilize 0.5 g BMDBM [2] | reduction of the cosmetic solvent necessary to dissolve BMDBM ([2]; 1:1 (w/w) PG-UVB1/diisopropyl sebacate versus diisopropyl sebacate) | reduction of the cosmetic solvent necessary to dissolve BMDBM ([2]; 1:1 (w/w) PG-UVB2/C12-15 alkyl benzoate versus C12-15 alkyl benzoate) | Solubility of BMDBM in C12-15 alkyl benzoate/UV-filter 1:1 ([1]; 200 mg BMDBM in 1000 mg 1:1 mixture, 1 month at RT, label = UV-filter in mixture) | Solubility of BMDBM: Δ solubility ([1]; 1:1 mixture versus C12-15 alkyl benzoate, label = UV-filter in mixture) | effect on solubility of BMDBM in C12-15 alkyl benzoate [1] | Solubility of BMDBM: Δ solubility related to cosmetic solvent ([1]; label = UV-filter in mixture) | Compound | solubility in the conventional cosmetic oils [3]
14 wt.-% | 1.4 g | 1.5 g | 3.0 g | 2.0 g | 65% | 75% | – | – | – | – | COc1ccc(C(=O)CC(=O)c2ccc(C(C)(C)C)cc2)cc1 [BMDBM, butyl methoxydibenzoylmethane] | less than 20%
– | – | – | – | – | – | – | 3 wt.-% | −11 wt.-% | neither be enhanced | −4 wt.-% | CCCCC(CC)COc1ccc(-c2nc(-c3ccc(OC)cc3)nc(-c3ccc(OCC(CC)CCCC)cc3O)n2)c(O)c1 (stereo not shown) [BEMT, bis-ethylhexyloxyphenol methoxyphenyl triazine] | –
– | – | – | – | – | – | – | – | – | neither be enhanced | – | CCCCC(CC)COC(=O)c1ccc(Nc2nc(Nc3ccc(C(=O)OCC(CC)CCCC)cc3)nc(Nc3ccc(C(=O)OCC(CC)CCCC)cc3)n2)cc1 (stereo not shown) [EHT, Ethylhexyltriazone] | –
